In ChEMBL document CHEMBL3232707, “Total synthesis of the lipid mediator PD1n-3 DPA: configurational assignments and anti-inflammatory and pro-resolving actions” (J Nat Prod, 2014):
The source made the active and inactive calls.

Experiments:
Mus musculus [1] = assay: Antiinflammatory activity in mouse assessed as reduction of zymosan-induced neutrophil recruitment during peritonitis at 10 ng, iv administered 5 mins before zymosan challenge measured after 4 hrs by light microscopy/flow cytometry; type: functional, organism-based
Macrophage [2] = assay: Pro-resolving activity in human macrophages assessed as increase of phagocytosis of fluorescence-labeled yeast cell wall particles at 100 nM to 10 pM preincubated for 15 mins measured after 60 mins; type: functional, cell-based
Macrophage [3] = assay: Pro-resolving activity in human macrophages assessed as increase of phagocytosis of bisbenzimide-labeled apoptotic neutrophils at 100 nM to 10 pM preincubated for 15 mins measured after 60 mins; type: functional, cell-based
Mus musculus [4] = assay: Antiinflammatory activity in mouse assessed as reduction of zymosan-induced number of neutrophils recovered from peritoneal exudates at 10 ng, iv administered 5 mins before zymosan challenge measured after 4 hrs by light microscopy/flow cytometry; type: functional, organism-based

Measured: Activity

CC/C=C\C[C@H](O)\C=C/C=C/C=C/[C@H](O)C/C=C\C/C=C\CCC(=O)O
active: all assays above

CC/C=C\C[C@H](O)\C=C/C=C/C=C/[C@H](O)C/C=C\CCCCCC(=O)O
active: all assays above
